Data set [1] deals with Bacillus subtilis PCI 219. As to the kind of experiment: Antimicrobial spectrum (MIC). The class given is cell-based. The following applies: PCI219. An excerpt: (§1) The antimicrobial spectra to various microorganisms of the Cephamycin C produced by the process of this invention are shown as minimum inhibitory concentrations (MIC) in Table 4.
Data set [2] relates to Esherichia coli NIHJ. As to the kind of experiment: Antimicrobial spectrum (MIC). The class given is cell-based.
Source text: as §1

Data set [3] deals with Proteus mirabilis 1287. As to the kind of experiment: Antimicrobial spectrum (MIC). The class given is cell-based.
Source text: as §1

In data set [4] the test system is Proteus vulgaris IID OX-19. The data set is described as follows: Antimicrobial spectrum (MIC). Particulars: IIDOX19. Format: cell-based.
Source text: as §1

The test system of data set [5] is Salmonella typhi 0-901 NCTC 8393. As to the kind of experiment: Antimicrobial spectrum (MIC). The class given is cell-based. Particulars: Salmonella enterica.
Source text: as §1

Data set [6] deals with Sarcina lutea PCI 1001. The data set is described as follows: Antimicrobial spectrum (MIC). Format: cell-based. The following applies: Micrococcus luteus, PCI1001.
Source text: as §1

Data set [7] has as its system Staphylococcus aureus FDA 209P. As to the kind of experiment: Antimicrobial spectrum (MIC). Format: cell-based. The following applies: FDA209P.
Source text: as §1

Data set [8] relates to Staphylococcus aureus Newman. The data set is described as follows: Antimicrobial spectrum (MIC). Format: cell-based.
Source text: as §1

Data set [9] in a line: Solubility. The class given is physicochemical.

Converted amounts (≈) assume the structure as drawn.

Experimental findings from US4332891A, “Process for the production of antibiotic Cephamycin C” (Otsuka Pharmaceutical Co., Ltd., priority 1979, dated 1982) are described below.

As for `COC1(NC(=O)CCCC(N)C(=O)O)C(=O)N2C(C(=O)O)=C(COC(N)=O)CS[C@@H]21` (some centres unmarked) [Cephamycin C, 7-(5-amino-5-carboxyvalerylamino)-3-carbamoyloxymethyl-7-methoxy-3-cephem-4-carboxylic acid], the MIC turned out to be 15.6 mg/L (≈ 34.9 µM) in data set [1]; 15.6 mg/L (≈ 34.9 µM) in [2]; 7.8 mg/L (≈ 17.5 µM) in data set [3]; 7.8 mg/L (≈ 17.5 µM) in data set [4]; 3.9 mg/L (≈ 8.74 µM) in [5]; 15.6 mg/L (≈ 34.9 µM) in data set [6]. Further, the MIC in data set [7] and in data set [8] was 250 mg/L (≈ 560 µM) in each case. Moreover, the Solubility result in data set [9] (in dimethylsulfoxide) is reported as “slightly soluble in dimethylsulfoxide”; in data set [9] (in ethanol), “sparingly soluble in ethanol”; in data set [9] (in water), “well soluble in water”.
